{"source": "patent US12290497B2", "about": "“Agent containing 4-phenylbutyrate, for preventing or treating presbyopia” (SANTEN PHARMACEUTICAL CO., LTD., priority 2018, dated 2025)", "key": {"lens elasticity [1]": {"system": "lens elasticity", "assay": "Pharmacological Test 1: effect of EV06 eye drops on lens elasticity (lens diameter change under cover glass)", "type": "in vivo, C57BL/6J mice", "conditions": "3 times per day for 15 to 17 days; for Lens elasticity improvement: 2.5 μL/eye, 8-month-old mice, vs vehicle control", "description": "The effect of lipoic acid choline ester (EV06) on the lens elasticity was examined. The tests were conducted with reference to the methods described in InvestOphthalmol Vis Sci, 57, 2851-2863, 2016. EV06 is a compound represented by the following formula (2): A vehicle comprising 0.1% (w/v) of ethyl pyruvate, 0.269% (w/v) of sodium dihydrogenphosphate monohydrate (NaH2PO4H2O), 0.433% (w/v) of disodium hydrogenphosphate (Na2HPO4), 0.2% (w/v) of hydroxypropyl methylcellulose, and 0.5% (w/v) of NaCl was prepared. EV06 was sonicated with the addition of the vehicle to prepare a 5% (w/v) suspension. The resulting 5% (w/v) suspension was diluted with the vehicle to prepare a 1.5% (w/v) solution. Further, the resulting 1.5% (w/v) solution was diluted with the vehicle to prepare a 0.5% (w/v) solution. The total amount of each sample to be used in one day was prepared before use. 1) Each test sample (2.5 μL/eye) was instilled into the right eye of 8-month-old C57BL/6J mice with a Pipetman 3 times per day (around 9:00, 13:00 and 17:00) for 15 to 17 days. 2) After the final instillation, the mice were euthanized by carbon dioxide inhalation, and then the eyeballs were extracted and rinsed with Hank's balanced salt solution (HBSS). 3) The sclera near the optic nerve was cut with a razor, the lens was removed through the incision, and the removed lens was immersed in HESS. 4) The lens was placed on a glass slide, and an all-in-one fluorescence microscope BZ-9000 (Keyence) was used to capture an image of the lens (Image a). 5) Next, one cover glass (Corning^(registered trade mark) 22×22 mm Square) was placed on the lens, and an image in which the thickness of the lens changed due to the weight was similarly captured (Image b). 6) A change in the lens diameter was calculated from Equation 1 wherein the lens diameter of Image a is subtracted from the lens diameter of Image b, as described below. Then, the lens elasticity improvement of each sample group compared with the vehicle control group was calculated from Equation 2 described below. The mean of the vehicle control group was based on 6 eyes and the mean of each EV06 sample group was based on 12 eyes. Change in lens diameter=Lens diameter in Image b of each test sample−Lens diameter in Image a of each test sample (Equation 1) Lens elasticity improvement of each sample group=Mean change in lens diameter of each EV06 sample group−Mean change in lens diameter of Vehicle control group (Equation 2) (Results)"}, "lens elasticity [2]": {"system": "lens elasticity", "assay": "Pharmacological Test 2: effect of sodium 4-phenylbutyrate eye drops on lens elasticity", "type": "in vivo, C57BL/6J mice", "conditions": "3 times per day for 12 to 15 days; for Lens elasticity improvement: 2.5 μL/eye, 8-month-old mice, vs vehicle control", "description": "The effect of sodium 4-phenylbutyrate on the lens elasticity was examined. A vehicle comprising 0.1% (w/v) of ethyl pyruvate, 0.269% (w/v) of sodium dihydrogenphosphate monohydrate (NaH2PO4H2O), 0.433% (w/v) of disodium hydrogenphosphate (Na2HPO4), 0.2% (w/v) of hydroxypropyl methylcellulose, 0.5% (w/v) of NaCl was prepared. Sodium 4-phenylbutyrate was sonicated with the addition of the vehicle to prepare a 1.5% (w/v) solution. The resulting 1.5% (w/v) solution was diluted with the vehicle to prepare a 0.5% (w/v) solution. Further, the resulting 0.5% (w/v) solution was diluted with the vehicle to prepare a 0.15% (w/v) solution. The total amount of each sample to be used in one day was prepared before use. EV06 was sonicated with the addition of the vehicle to prepare a 1.5% (w/v) solution. The total amount of the sample to be used in one day was prepared before use. 1) Each test sample (2.5 μL/eye) was instilled into the right eye of 8-month-old C57BL/6J mice with a Pipetman 3 times per day (around 9:00, 13:00 and 17:00) for 12 to 15 days. 2) After the final instillation, the mice were euthanized by carbon dioxide inhalation, and then the eyeballs were extracted and rinsed with Hank's balanced salt solution (HBSS). 3) The sclera near the optic nerve was cut with a razor, the lens was removed through the incision, and the removed lens was immersed in HESS. 4) The lens was placed on a glass slide, and an all-in-one fluorescence microscope BZ-9000 (Keyence) was used to capture an image of the lens (Image a). 5) Next, one cover glass (Corning^(registered trade mark) 22×22 mm Square) was placed on the lens, and an image in which the thickness of the lens changed due to the weight was similarly captured (Image b). 6) A change in the lens diameter was calculated from Equation 1 wherein the lens diameter of Image a is subtracted from the lens diameter of Image b, as described below. Then, the lens elasticity improvement of each sample group compared with the vehicle control group was calculated from Equation 2 described below. The mean of the vehicle control group was based on 4 eyes, the mean of each sodium 4-phenylbutyrate sample group and the mean of the EV06 sample group were based on 9-10 eyes. Change in lens diameter=Lens diameter in Image b of each test sample−Lens diameter in Image a of each test sample (Equation 1) Lens elasticity improvement of each sample group=Mean change in lens diameter of each Test sample group−Mean change in lens diameter of Vehicle control group (Equation 2) (Results)"}, "lens elasticity [3]": {"system": "lens elasticity", "assay": "Pharmacological Test 3: effect of once-daily instillation of sodium 4-phenylbutyrate for 2 weeks on lens elasticity", "type": "in vivo, C57BL/6J mice", "conditions": "for Lens elasticity improvement: 2.5 μL/eye, vs vehicle control", "description": "The effect of once-daily instillation of sodium 4-phenylbutyrate for 2 weeks on the lens elasticity was examined. A vehicle comprising 0.1% (w/v) of ethyl pyruvate, 0.269% (w/v) of sodium dihydrogenphosphate monohydrate (NaH2PO4H2O), 0.433% (w/v) of disodium hydrogenphosphate (Na2HPO4), 0.2% (w/v) of hydroxypropyl methylcellulose, and 0.5% (w/v) of NaCl was prepared. Sodium 4-phenylbutyrate was dissolved with the addition of the vehicle to prepare a 3.0% (w/v) solution. The resulting 3.0% (w/v) solution was diluted with the vehicle to prepare a 1.0% (w/v) solution. Further, the resulting 1.0% (w/v) solution was diluted with the vehicle to prepare a 0.3% (w/v) solution. The total amount of each sample to be used in one day was prepared before use. EV06 was sonicated with the addition of the vehicle to prepare a 1.5% (w/v) solution. The total amount of the sample to be used in one day was prepared before use. 1) Each test sample (2.5 μL/eye) was instilled into the right eye of 8-month-old C57BL/6J mice with a Pipetman once per day (QD; around 9:00) or 3 times per day (TID; around 9:00, 13:00 and 17:00) for 14 days. 2) After the final instillation, the mice were euthanized by carbon dioxide inhalation, and then the eyeballs were extracted and rinsed with Hank's balanced salt solution (HBSS). 3) The sclera near the optic nerve was cut with a razor, the lens was removed through the incision, and the removed lens was immersed in HBSS. 4) The lens was placed on a glass slide, and an all-in-one fluorescence microscope BZ-9000 (Keyence) was used to capture an image of the lens (Image a). 5) Next, one cover glass (Corning^(registered trade mark) 22×22 mm Square) was placed on the lens, and an image in which the thickness of the lens changed due to the weight was similarly captured (Image b). 6) A change in the lens diameter was calculated from Equation 1 wherein the lens diameter of Image a is subtracted from the lens diameter of Image b, as described below. Then, the lens elasticity improvement of each sample group compared with the vehicle control group was calculated from Equation 2 described below. The mean of the vehicle control group was based on 5 eyes. The mean of each sodium 4-phenylbutyrate sample group and the mean of each EV06 sample group were based on 9 to 10 eyes. Change in lens diameter=Lens diameter in Image b of each test sample−Lens diameter in Image a of each test sample (Equation 1) Lens elasticity improvement of each sample group=Mean change in lens diameter of each Test sample group−Mean change in lens diameter of Vehicle control group (Equation 2) (Results)"}, "[4]": {"system": "anterior segment of the eye", "assay": "Ocular Irritation Test (McDonald-Shadduck method, lens observation, histopathology)", "type": "in vivo, Japanese White rabbits", "description": "A vehicle (aqueous solution) comprising 0.1% (w/v) of ethyl pyruvate, 0.269% (w/v) of sodium dihydrogenphosphate monohydrate (NaH2PO4H2O), 0.433% (w/v) of disodium hydrogenphosphate (Na2HPO4), 0.2% (w/v) of hydroxypropyl methylcellulose, 0.5% (w/v) of NaCl was prepared.\n0.3% (w/v), 1% (w/v), and 3% (w/v) sodium 4-phenylbutyrate ophthalmic liquids were prepared in the same manner as in the above pharmacological tests. These ophthalmic liquids and the vehicle were each instilled into the left eye of Japanese White rabbits at a dose of 50 μL/eye with pipette twice per day at a 6-hour interval for 2 weeks. One hour after the final instillation, ocular irritation of anterior segment of the eye was evaluated according to the McDonald-Shadduck method, and the lens was observed. The contralateral eye was […].\nThe ocular irritation of anterior segment of the eye was scored according to the following criteria:\n+1: mild; +2: moderate; +3: severe."}}}
{"smiles": "C[N+](C)(C)CCOC(=O)CCCC[C@@H]1CCSS1.[Cl-]", "note": "[EV06, lipoic acid choline ester]", "values": [{"measurement": "Lens elasticity improvement", "setting": "lens elasticity [1]; 0.5% (w/v) sample", "result": 28.8, "unit": "μm"}, {"measurement": "Lens elasticity improvement", "setting": "lens elasticity [1]; 1.5% (w/v) sample", "result": 47.3, "unit": "μm"}, {"measurement": "Lens elasticity improvement", "setting": "lens elasticity [1]; 5% (w/v) sample", "result": 48.7, "unit": "μm"}, {"measurement": "Lens elasticity improving effect (in words)", "setting": "lens elasticity [1]; all of the 0.5%, 1.5%, and 5% groups", "result": "increased lens diameter compared with the vehicle control group"}, {"measurement": "Lens elasticity improvement", "setting": "lens elasticity [2]; 1.5% (w/v) sample", "result": 49.0, "unit": "μm"}, {"measurement": "Lens elasticity improvement", "setting": "lens elasticity [3]; 1.5% (w/v) sample, 3 times per day (TID) for 14 days", "result": 47.9, "unit": "μm"}, {"measurement": "Lens elasticity improvement", "setting": "lens elasticity [3]; 1.5% (w/v) sample, once per day (QD) for 14 days", "result": 21.6, "unit": "μm"}]}
{"smiles": "O=C([O-])CCCc1ccccc1.[Na+]", "note": "[sodium 4-phenylbutyrate]", "values": [{"measurement": "Lens elasticity improvement", "setting": "lens elasticity [2]; 0.15% (w/v) sample", "result": 38.1, "unit": "μm"}, {"measurement": "Lens elasticity improvement", "setting": "lens elasticity [2]; 0.5% (w/v) sample", "result": 47.5, "unit": "μm"}, {"measurement": "Lens elasticity improvement", "setting": "lens elasticity [2]; 1.5% (w/v) sample", "result": 51.4, "unit": "μm"}, {"measurement": "Lens elasticity improving effect compared with EV06 at the same concentration", "setting": "lens elasticity [2]; 1.5% sample group", "result": "stronger than that of EV06"}, {"measurement": "Lens elasticity improving effect (in words)", "setting": "lens elasticity [2]; all of the 0.15%, 0.5%, and 1.5% groups", "result": "potent lens elasticity improving effect"}, {"measurement": "Lens elasticity improvement", "setting": "lens elasticity [3]; 0.3% (w/v) sample, once per day (QD) for 14 days", "result": 25.6, "unit": "μm"}, {"measurement": "Lens elasticity improvement (in words)", "setting": "lens elasticity [3]; 0.3%, 1% and 3% samples instilled once-daily for 14 days", "result": "potent lens elasticity improvement"}, {"measurement": "Lens elasticity improvement", "setting": "lens elasticity [3]; 1.0% (w/v) sample, once per day (QD) for 14 days", "result": 30.6, "unit": "μm"}, {"measurement": "Lens elasticity improvement", "setting": "lens elasticity [3]; 3.0% (w/v) sample, once per day (QD) for 14 days", "result": 48.1, "unit": "μm"}, {"measurement": "Lens elasticity improvement compared with 1.5% EV06", "setting": "lens elasticity [3]; concentrations 1.0% and 3.0%, once-daily for 14 days", "result": "more potent lens elasticity improvement compared with 1.5% EV06"}, {"measurement": "Overall safety of ophthalmic liquids (in words)", "setting": "[4]; ophthalmic liquids, rabbit 2-week instillation", "result": "highly safe"}, {"measurement": "Histopathological examination of the eyes (in words)", "setting": "[4]; rabbit, in vivo", "result": "showed no abnormal findings"}, {"measurement": "Observation of ocular irritation of anterior segment of the eye and lens observation (in words)", "setting": "[4]; rabbit, in vivo", "result": "no abnormal findings were observed"}]}
